Source: the NIST ThermoML archive (doi:10.1021/je900337a)
Numbers after ± are expanded uncertainties.

Columns and labels:
[1] = 323.15 K; for mass density / viscosity: 101.33 kPa, Liquid; for viscosity: Capillary tube (Ostwald / Ubbelohde) method
[2] = xn = mol fraction of the nth substance listed; details: 323.15 K; for viscosity / mass density: 101 kPa; for viscosity: Capillary tube (Ostwald / Ubbelohde) method

CCCCOC(C)=O [butyl ethanoate]
Details | surface tension liquid-gas [mN/m]
[1], Ring tensiometer | 22.12 ± 0.06

[1]
Details | mass density [kg/m3] | viscosity [mPa·s]
– | 849.75 ± 0.4 | 0.502 ± 0.004

CCCCOC(C)=O [butyl ethanoate] + CCCO
[2], Liquid
Details | mass density [kg/m3] | viscosity [mPa·s]
x1 = 0.1 | 790.07 ± 0.48 | 0.879 ± 0.006
x1 = 0.2 | 799.51 ± 0.47 | 0.747 ± 0.005
x1 = 0.3 | 807.87 ± 0.46 | 0.662 ± 0.005
x1 = 0.4 | 815.42 ± 0.45 | 0.604 ± 0.004
x1 = 0.5 | 822.21 ± 0.44 | 0.566 ± 0.004
x1 = 0.6 | 828.46 ± 0.43 | 0.538 ± 0.004
x1 = 0.7 | 834.3 ± 0.42 | 0.521 ± 0.004
x1 = 0.8 | 839.71 ± 0.41 | 0.508 ± 0.004
x1 = 0.9 | 844.84 ± 0.4 | 0.502 ± 0.004

[2], Liquid, Ring tensiometer
Details | surface tension liquid-gas [mN/m]
x1 = 0.1 | 21.56 ± 0.33
x1 = 0.2 | 21.72 ± 0.33
x1 = 0.3 | 21.84 ± 0.34
x1 = 0.4 | 21.97 ± 0.34
x1 = 0.5 | 22.05 ± 0.34
x1 = 0.6 | 22.12 ± 0.34
x1 = 0.7 | 22.17 ± 0.34
x1 = 0.8 | 22.2 ± 0.34
x1 = 0.9 | 22.18 ± 0.34

CCCCOC(C)=O [butyl ethanoate] + O
[2]
Details | interfacial tension [mN/m] | mass density [kg/m3] | surface tension liquid-gas [mN/m] | viscosity [mPa·s]
Liquid mixture 1, Ring tensiometer, x2 = 0.9998 | 14.2 ± 0.3 | – | – | –
Liquid mixture 2, Ring tensiometer, x2 = 0.1305 | – | – | 21.74 ± 0.43 | –
Liquid, x2 = 0.02 | – | 850.18 ± 0.4 | – | 0.503 ± 0.004
Liquid, x2 = 0.04 | – | 850.62 ± 0.39 | – | 0.504 ± 0.004
Liquid, x2 = 0.06 | – | 851.07 ± 0.39 | – | 0.506 ± 0.004
Liquid, x2 = 0.08 | – | 851.57 ± 0.39 | – | 0.507 ± 0.004

[2], Liquid, Ring tensiometer
Details | surface tension liquid-gas [mN/m]
x2 = 0.02 | 22.14 ± 0.34
x2 = 0.04 | 22.17 ± 0.34
x2 = 0.06 | 22.2 ± 0.34
x2 = 0.08 | 22.25 ± 0.34

CCCO [propan-1-ol]
Details | surface tension liquid-gas [mN/m]
[1], Ring tensiometer | 21.36 ± 0.06

[1]
Details | mass density [kg/m3] | viscosity [mPa·s]
– | 779.3 ± 0.51 | 1.115 ± 0.007

CCCO [propan-1-ol] + O
[2], Liquid
Details | mass density [kg/m3] | viscosity [mPa·s]
x2 = 0.05 | 782.94 ± 0.49 | 1.121 ± 0.007
x2 = 0.1 | 786.61 ± 0.49 | 1.127 ± 0.007
x2 = 0.2 | 794.62 ± 0.47 | 1.15 ± 0.007
x2 = 0.3 | 803.64 ± 0.45 | 1.18 ± 0.008
x2 = 0.4 | 814.4 ± 0.43 | 1.219 ± 0.008
x2 = 0.5 | 827.68 ± 0.41 | 1.26 ± 0.008
x2 = 0.6 | 844.41 ± 0.38 | 1.291 ± 0.008
x2 = 0.7 | 865.87 ± 0.35 | 1.305 ± 0.008
x2 = 0.8 | 894.61 ± 0.31 | 1.256 ± 0.008
x2 = 0.9 | 935.04 ± 0.25 | 1.036 ± 0.006
x2 = 0.95 | 959.71 ± 0.22 | 0.827 ± 0.005

[2], Liquid, Ring tensiometer
Details | surface tension liquid-gas [mN/m]
x2 = 0.05 | 21.55 ± 0.33
x2 = 0.1 | 21.68 ± 0.33
x2 = 0.2 | 21.93 ± 0.34
x2 = 0.3 | 22.29 ± 0.34
x2 = 0.4 | 22.68 ± 0.34
x2 = 0.5 | 23.06 ± 0.35
x2 = 0.6 | 23.42 ± 0.35
x2 = 0.7 | 23.65 ± 0.35
x2 = 0.8 | 24.12 ± 0.36
x2 = 0.9 | 25.27 ± 0.37
x2 = 0.92 | 26.37 ± 0.39
x2 = 0.95 | 29.58 ± 0.43
x2 = 0.98 | 44.44 ± 0.6

O [water]
Details | surface tension liquid-gas [mN/m]
[1], ring detachment method | 68.38 ± 0.04
